Experimental data: BindingDB's records for doi:10.7270/Q2PR7TCX (The Scripps Research Institute Molecular Screening Center, 2007)

Biological target: Steroidogenic factor 1 (Homo sapiens, UniProt Q13285)
Test: SF-1 inhibitors in Gal4 reporter counter-screen, dose response, counter-screen for RORA inhibitor project, cell-based, CHO-K1, Gal4-SF-1 LBD, luciferase luminescence (AID 611)

Sequence of Steroidogenic factor 1 (Q13285 whole entry, the tested form may be a part): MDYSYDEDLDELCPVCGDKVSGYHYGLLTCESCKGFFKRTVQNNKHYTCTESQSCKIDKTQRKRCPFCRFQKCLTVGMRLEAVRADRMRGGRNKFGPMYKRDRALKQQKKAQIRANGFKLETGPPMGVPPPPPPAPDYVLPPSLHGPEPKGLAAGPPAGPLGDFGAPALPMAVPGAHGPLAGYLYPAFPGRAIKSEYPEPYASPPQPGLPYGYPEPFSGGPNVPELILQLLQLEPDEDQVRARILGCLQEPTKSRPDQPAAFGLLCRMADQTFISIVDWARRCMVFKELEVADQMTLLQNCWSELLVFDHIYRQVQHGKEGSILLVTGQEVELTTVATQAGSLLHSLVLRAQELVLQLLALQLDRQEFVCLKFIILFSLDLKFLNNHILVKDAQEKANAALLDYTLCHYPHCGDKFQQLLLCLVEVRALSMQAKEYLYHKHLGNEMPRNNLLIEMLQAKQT

SMILES	IC50
O=S1(=O)C=C(Sc2nc3cc(Cl)ccc3o2)c2ccccc21 [SMR000019512]	5.99 µM
CCCCS(=O)(=O)/C=C\C=C/S(=O)(=O)CCCC [SMR000020833]	1.64 µM
CC(=O)c1c(C)[nH]c(C(=O)Nc2ccc(C)cn2)c1C [SMR000026816]	4.92 µM
COCCn1c(C)cc(C(=O)COC(=O)c2[nH]nc3ccccc23)c1C [SMR000068187]	8.16 µM
COc1cc(NS(=O)(=O)c2ccc(C)cc2)c2ncccc2c1 [SMR000071147]	5.2 µM
COC(=O)/C(=C1/Oc2cc(C)oc(=O)c2S1)C(F)(F)F [methyl (2E)-3,3,3-tris(fluoranyl)-2-(6-methyl-4-oxidanylidene-[1,3]oxathiolo[4,5-c]pyran-2-ylidene)propanoate]	4.32 µM
CCCCCOC(=O)c1[nH]c2c(c1C)C(=O)CC(c1ccco1)C2 (stereo unspecified) [pentyl 6-(furan-2-yl)-3-methyl-4-oxidanylidene-1,5,6,7-tetrahydroindole-2-carboxylate]	1.87 µM

More lines, now with the values ahead:

IC50	SMILES
21.9 µM	c1ccc(CNc2ncnc3ccccc23)cc1 [N-benzylquinazolin-4-amine]
7.19 µM	c1ccc2nc(-c3nc4ccccc4[nH]3)ccc2c1 [SMR000008748]
2.99 µM	c1ccc2c(c1)CCN(c1ncnc3c1[nH]c1ccccc13)C2 [SMR000039631]
4.13 µM	c1ccc(-c2nc(N3CCCCCC3)c3ccccc3n2)nc1 [SMR000046752]
